Values after ≈ are worked out from the molar mass of the structure shown.
Experiments:
B. subtilis (ATCC 6633) [1] = system: B. subtilis (ATCC 6633); design: method as in Crombie et al.[17]; details: ref Crombie et al.[17]; cited from earlier work
S. aureus (ATCC 25923) [2] = system: S. aureus (ATCC 25923); design: method as in Crombie et al.[17]; details: ref Crombie et al.[17]; cited from earlier work
MRSA (ATCC 33592) [3] = system: MRSA (ATCC 33592); design: method as in Crombie et al.[17]; details: ref Crombie et al.[17]; cited from earlier work
[4] = system: Saccharomyces cerevisiae (ATCC 9763); details: S. cerevisiae ATCC 9763; ref Crombie et al.[17]; cited from earlier work
[5] = system: NS-1 (ATCC TIB-18) mouse myeloma cells; design: method as in Crombie et al.[17]; details: mouse myeloma NS-1; ref Crombie et al.[17]; cited from earlier work
[6] = system: NFF (ATCC PCS-201) human neonatal foreskin fibroblast cells; design: method as in Crombie et al.[17]; details: ref Crombie et al.[17]; cited from earlier work
B. subtilis (ATCC 6633) [7] = assay: Antibacterial ProTOX bioassay, B. subtilis; format: cell-based; details: Bacillus subtilis, ATCC6633; B. subtilis ATCC 6633, 48 h, 28 °C; read-out: Minimum inhibitory concentration (MIC) B. subtilis
Description: (§1) 12. Bioactivity screening.
(§2) Purified metabolites were dissolved in DMSO to create stock solutions of 10,000 µg/mL. An aliquot from each stock solution was transferred to the first well of Rows B to G on a 96-well microtitre plate and then serially diluted two-fold with DMSO across the 12 wells of the plate to achieve a 2,048-fold concentration gradient. Bioassay medium was added to an aliquot of each diluted solution to achieve a 100-fold dilution in the final bioassay. This […]
(§3) 0.1 µg/mL in 2% DMSO for yeasts. Row A served as a control with no test compound (indicating no inhibition), and Row H was left uninoculated (serving as a control for complete inhibition).
(§4) B. subtilis (ATCC 6633), S. aureus (ATCC 25923) and MRSA (ATCC 33592) were used as indicator species for antibacterial activity, employing the ProTOX bioassay platform. A bacterial suspension (50 mL in a 250 mL flask) was prepared in nutrient media by cultivating it for 24 h at 250 rpm and 28 °C. The suspension was diluted to an absorbance of 0.01 absorbance units per mL, and 10 µL aliquots were added to the wells of a 96-well microtitre plate containing the test compounds dispersed in 190 µL of nutrient broth (Amyl) with 10 µL resazurin (12.5 µg/mL). The plates were incubated at 28 °C for 48 h, during which the positive control wells changed colour from blue to light pink. Tetracycline was employed as a control for B. subtilis, while ampicillin was used for S. aureus and MRSA. MIC endpoints were determined visually. Absorbance was measured using a Multiskan Skyhigh Microplate Spectrophotometer (Thermo Fisher Scientific) at 605 nm.

S. aureus (ATCC 25923) [8] = assay: Antibacterial ProTOX bioassay, S. aureus; format: cell-based; details: Staphylococcus aureus, ATCC25923; S. aureus ATCC 25923, 48 h, 28 °C; read-out: Minimum inhibitory concentration (MIC) S. aureus
Description: as §1, §2, §3, §4

MRSA (ATCC 33592) [9] = assay: Antibacterial ProTOX bioassay, MRSA; format: cell-based, methicillin-resistant S. aureus; details: Staphylococcus aureus; MRSA ATCC 33592, 48 h, 28 °C; read-out: Minimum inhibitory concentration (MIC) MRSA
Description: as §1, §2, §3, §4

[10] = system: Saccharomyces cerevisiae (ATCC 9763); assay: Antifungal EuTOX bioassay, S. cerevisiae; format: cell-based; details: Saccharomyces cerevisiae, ATCC9763; S. cerevisiae ATCC 9763, 48 h; read-out: Minimum inhibitory concentration (MIC) S. cerevisiae
Description: as §1, §2
(§5) 0.1 µg/mL in 2% DMSO for yeasts. Row A served as a control with no test compound (indicating no inhibition), and Row H was left uninoculated (serving as a control for complete inhibition). […]
(§6) MIC endpoints were determined visually. Absorbance was measured using a Multiskan Skyhigh […]
Saccharomyces cerevisiae (ATCC 9763) was used as indicator species for antifungal activity, employing the EuTOX bioassay platform. A yeast suspension (50 mL in a 250 mL flask) was prepared in 1% malt extract broth by cultivating it for 24 h at 250 rpm and 24 °C. The suspension was diluted to absorbances of 0.03 absorbance units per mL and 30 µL were added to the wells of a 96-well microtitre plate containing the test compounds dispersed in 100 µL of malt extract agar with bromocresol green (50 µg/mL). The plates were incubated at 28 °C for 48 h, during which the positive control wells changed colour from blue to yellow. Blasticidin S HCl was used

[11] = system: NS-1 (ATCC TIB-18) mouse myeloma cells; assay: Cytotoxicity resazurin assay, NS-1 cells; format: cell-based; details: NS1; mouse myeloma NS-1 ATCC TIB-18, 96 h; read-out: IC50 NS-1
Description: as §1, §2, §5, §6, §6
(§7) NS-1 (ATCC TIB-18) mouse myeloma and NFF (ATCC PCS -201) human neonatal foreskin fibroblast cells were each inoculated in 96-well microtitre plates (190 µL) at 50,000 cells/mL in DMEM (Dulbecco's Modified Eagle Medium + 10% fetal bovine serum (FBS) + 1% penicillin/streptomycin (10,000 U/mL / 10,000 µg/mL, Life Technologies Cat. No. 15140122), together with resazurin (250 µg/mL; 10 µL) and incubated in 37 °C (5% CO2) incubator. The plates were incubated for 96 h during which time the positive control wells change colour from a blue to pink colour. The absorbance of each well was measured using Multiskan Skyhigh Microplate Spectrophotometer (Thermofisher Scientific) at 605 nm. Sparsomycin was used as a control. The IC50 values were determined using a sigmoidal dose-response model with variable slope in GraphPad Prism 8.

[12] = system: NFF (ATCC PCS-201) human neonatal foreskin fibroblast cells; assay: Cytotoxicity resazurin assay, NFF cells; format: cell-based; details: Homo sapiens; neonatal foreskin fibroblast NFF, 96 h; read-out: IC50 NFF
Description: as §1, §2, §5, §6, §6, §7

[13] = system: mammalian adenosine triphosphatases; design: method as in PMID 8270486; details: cited from earlier work
HIV-1 integrase = system: HIV-1 integrase; design: method as in PMID 19952429, PMID 15015729; details: cited from earlier work
[14] = system: fatty acid synthase II (FAS II); details: cited from earlier work
[15] = system: methicillin-resistant S. aureus (MRSA); design: method as in PMID 19952429; details: cited from earlier work

Structure (SMILES) | Minimum inhibitory concentration (MIC) B. subtilis (B. subtilis (ATCC 6633) [1]) [µg/mL] | Minimum inhibitory concentration (MIC) S. aureus (S. aureus (ATCC 25923) [2]) [µg/mL] | Minimum inhibitory concentration (MIC) MRSA (MRSA (ATCC 33592) [3]) [µg/mL] | Minimum inhibitory concentration (MIC) S. cerevisiae [4] [µg/mL] | IC50 NS-1 [5] [µM] | IC50 NFF [6] [µM] | MIC (B. subtilis (ATCC 6633) [7]) [µg/mL] | MIC (S. aureus (ATCC 25923) [8]) [µg/mL] | MIC (MRSA (ATCC 33592) [9]) [µg/mL] | MIC [10] [µg/mL] | IC50 [11] [µg/mL] | IC50 [12] [µg/mL] | inhibition of mammalian adenosine triphosphatases [13] | inhibition of HIV-1 integrase (HIV-1 integrase) | inhibition of fatty acid synthase II (FAS II) [14] | antibacterial activity against MRSA [15]
CCCCC/C=C\C/C=C\CCCCCCCc1cc(O[C@@H]2O[C@H](CO)[C@H](O)[C@H](O)[C@H]2O)cc(O)c1C(=O)Oc1cc(C)c(C(=O)O)c(O)c1 [2a, Geministatin A] | 1.6 (≈ 2.28 µM) | 6.3 (≈ 8.99 µM) | 6.3 (≈ 8.99 µM) | >200 | >50 | >100 | – | – | – | – | – | – | – | – | – | –
CCCCCCCCCCCCCCCc1cc(O[C@@H]2O[C@H](CO)[C@@H](O)[C@H](O)[C@H]2O)cc(O)c1C(=O)Oc1cc(C)c(C(=O)O)c(O)c1 [1a, Aquastatin A] | – | – | – | – | – | – | 1.6 (≈ 2.36 µM) | 12.5 (≈ 18.5 µM) | 1.6 (≈ 2.36 µM) | > 200 | > 100 | > 100 | inhibitor | inhibit | inhibit | demonstrated antibacterial activity
CCCCC/C=C\C/C=C\CCCCCCCc1cc(O)cc(O)c1C(=O)Oc1cc(C)c(C(=O)O)c(O)c1 [2b, Geministatin B] | 0.4 (≈ 0.743 µM) | 3.1 (≈ 5.75 µM) | 1.6 (≈ 2.97 µM) | >200 | >50 | >100 | – | – | – | – | – | – | – | – | – | –

Reference: publication PMC11514314, “The aquastatin biosynthetic gene cluster encodes a versatile polyketide synthase capable of synthesising heteromeric depsides with diverse alkyl side chains” (Chemical Science, 2024)
